Laboratory results published in PubChem BioAssay AID248 (DTP/NCI, 2004).
“And” between values parts separate entries of the source, which are not always exact repeats. Equal entries are not always repeated. Inconclusive results and toxic doses are left out. Cut-off read from the data, not from the text of the source: active = T/C of 150% or more; inactive = T/C below 125%. Numbered stars: 1 amine (or outer) side, 2 acyl side, 3 side chain; on linkers, the order of the positions; unused ones are H or OH. Square brackets hold non-standard residues; d marks the D form. Peptide text beside a SMILES is read from it. γGlu = O=C(O)[CH](CCC(=O)[*:2])N[*:1]; Hpg = N[CH](C(=O)O)c1ccc(O)cc1

Test system: L1210 leukemia ip in BDF1 mice, survival T/C
Test: NCI In Vivo Anticancer Drug Screen. Data for tumor model L1210 Leukemia (intraperitoneal) in B6D2F1 (BDF1) mice
Details: endpoint: mean survival time, higher = longer survival
Outline: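 Antitumor effect is assessed in tumor-bearing animals. Survival in the compound arm is compared with a vehicle-dosed control arm and expressed as their quotient.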

[1] = dose: 100.0 mg/kg/injection, schedule: Q01DX001 (ip), vehicle: other
[2] = dose: 200.0 mg/kg/injection, schedule: Q01DX001 (ip), vehicle: other
[3] = dose: 400.0 mg/kg/injection, schedule: Q01DX001 (ip), vehicle: other
[4] = dose: 100.0 mg/kg/injection, schedule: Q04DX003 (ip), vehicle: Klucel (hydroxypropylcellulose) (HPC)
[5] = dose: 200.0 mg/kg/injection, schedule: Q04DX003 (ip), vehicle: Klucel (hydroxypropylcellulose) (HPC)
[6] = dose: 100.0 mg/kg/injection, schedule: Q04DX003 (ip), vehicle: saline with Tween-80
[7] = dose: 200.0 mg/kg/injection, schedule: Q04DX003 (ip), vehicle: saline with Tween-80
[8] = dose: 400.0 mg/kg/injection, schedule: Q04DX003 (ip), vehicle: saline with Tween-80
[9] = dose: 50.0 mg/kg/injection, schedule: Q01DX001 (ip), vehicle: saline
[10] = dose: 100.0 mg/kg/injection, schedule: Q01DX001 (ip), vehicle: saline
[11] = dose: 200.0 mg/kg/injection, schedule: Q01DX001 (ip), vehicle: saline
[12] = dose: 400.0 mg/kg/injection, schedule: Q01DX001 (ip), vehicle: saline
[13] = dose: 100.0 mg/kg/injection, schedule: Q01DX009 (ip), vehicle: saline with Tween-80
[14] = dose: 200.0 mg/kg/injection, schedule: Q01DX009 (ip), vehicle: saline with Tween-80
[15] = dose: 400.0 mg/kg/injection, schedule: Q01DX009 (ip), vehicle: saline with Tween-80
[16] = dose: 100.0 mg/kg/injection, schedule: Q01DX009 (ip), vehicle: saline
[17] = dose: 200.0 mg/kg/injection, schedule: Q01DX009 (ip), vehicle: saline
[18] = dose: 400.0 mg/kg/injection, schedule: Q01DX009 (ip), vehicle: saline
[19] = dose: 100.0 mg/kg/injection, schedule: Q01DX001 (ip), vehicle: carboxymethylcellulose (CMC)
[20] = dose: 200.0 mg/kg/injection, schedule: Q01DX001 (ip), vehicle: carboxymethylcellulose (CMC)
[21] = dose: 400.0 mg/kg/injection, schedule: Q01DX001 (ip), vehicle: carboxymethylcellulose (CMC)
[22] = dose: 100.0 mg/kg/injection, schedule: Q01DX009 (ip), vehicle: Klucel (hydroxypropylcellulose) (HPC)
[23] = dose: 200.0 mg/kg/injection, schedule: Q01DX009 (ip), vehicle: Klucel (hydroxypropylcellulose) (HPC)
[24] = dose: 400.0 mg/kg/injection, schedule: Q01DX009 (ip), vehicle: Klucel (hydroxypropylcellulose) (HPC)
[25] = dose: 50.0 mg/kg/injection, schedule: Q01DX009 (ip), vehicle: saline with Tween-80

Measured: T/C

O=C(c1cccc([N+](=O)[O-])c1)c1ccc(O)cc1O
inactive: [1] 103 % of control | dose: 100.0 mg/kg/injection, schedule: Q04DX003 (ip), vehicle: other 103 % of control | [2] 95 % of control | dose: 200.0 mg/kg/injection, schedule: Q04DX003 (ip), vehicle: other 100 % of control | [3] 95 % of control | dose: 400.0 mg/kg/injection, schedule: Q04DX003 (ip), vehicle: other 100 % of control

NC(=O)C(Br)c1ccccc1 (configuration not stated)
inactive: [4] 101 % of control | [5] 98 % of control

O=C(/C(=N/N=C\c1ccc([N+](=O)[O-])cc1)c1ccccc1)c1ccccc1
inactive: [6] 96 % of control | [7] 96 % of control | [8] 94 % of control

CCC(C)NC(C)=O (configuration not stated)
inactive: dose: 100.0 mg/kg/injection, schedule: Q04DX003 (ip), vehicle: saline 115 % of control | dose: 200.0 mg/kg/injection, schedule: Q04DX003 (ip), vehicle: saline 97 % of control | dose: 400.0 mg/kg/injection, schedule: Q04DX003 (ip), vehicle: saline 110 % of control

CC(=O)C(=O)C=C(C(F)(F)F)C(F)(F)F
inactive: [6] 113 % of control | [7] 106 % of control | [8] 101 % of control

CCCC(=O)CC(=O)CC(C)C
inactive: [9] 100 % of control | [10] 94 % of control | [11] 107 % of control | [12] 94 % of control

C#CCn1c2ccccc2c2ccccc21
inactive: [10] 97 % of control | [13] 95 % of control | [11] 103 % of control | [14] 101 % of control | [12] 103 % of control | [15] 96 % of control

CCN(CC)C(=O)CBr
inactive: dose: 50.0 mg/kg/injection, schedule: Q01DX001 (ip), vehicle: Klucel (hydroxypropylcellulose) (HPC) 99 % of control | dose: 100.0 mg/kg/injection, schedule: Q01DX001 (ip), vehicle: Klucel (hydroxypropylcellulose) (HPC) 99 % of control | dose: 200.0 mg/kg/injection, schedule: Q01DX001 (ip), vehicle: Klucel (hydroxypropylcellulose) (HPC) 97 % of control

CCN(CC)CCCC(C)Nc1ncnc2c1C(c1ccccc1)C(C)(C)O2 (configuration not stated)
inactive: [16] 106 % of control | [17] 101 % of control | [18] 101 % of control

CCC(=N\N=C(N)N)/C(C)=N\N=C(N)N
inactive: dose: 15.0 mg/kg/injection, schedule: Q01DX Z (ip), vehicle: saline 93 % of control | dose: 30.0 mg/kg/injection, schedule: Q01DX Z (ip), vehicle: saline 98 % of control | dose: 120.0 mg/kg/injection, schedule: Q01DX Z (ip), vehicle: saline 121 % of control

O=C(O)CNC1CCCCC1
inactive: [16] 96 % of control | dose: 100.0 mg/kg/injection, schedule: Q04DX002 (ip), vehicle: saline 97 % of control | [17] 89 % of control | dose: 200.0 mg/kg/injection, schedule: Q04DX002 (ip), vehicle: saline 102 % of control | [18] 96 % of control | dose: 400.0 mg/kg/injection, schedule: Q04DX002 (ip), vehicle: saline 97 % of control

CC1(NCc2ccc(Cl)cc2)COP(=O)(NCc2ccccc2)OC1 (configuration not stated)
inactive: [9] 101 % of control | [10] 106 % of control | [11] 95 % of control | [12] 98 % of control

C[CH2][Pb]([CH2]C)([CH2]C)[N]1C(=O)c2c(Cl)c(Cl)c(Cl)c(Cl)c2C1=O
inactive: dose: 12.5 mg/kg/injection, schedule: Q04DX002 (ip), vehicle: Klucel (hydroxypropylcellulose) (HPC) 107 % of control

COC1C(CO)OC(n2cnc3c(=O)[nH]c(N)nc32)C1O (configuration not stated)
inactive: [19] 98 % of control | [20] 104 % of control | [21] 114 % of control

COc1ccccc1NC(=O)c1ccc(Cl)cc1
inactive: [22] 91 % of control | [4] 105 % of control | [23] 98 % of control | [5] 108 % of control | [24] 102 % of control | dose: 400.0 mg/kg/injection, schedule: Q04DX003 (ip), vehicle: Klucel (hydroxypropylcellulose) (HPC) 97 % of control

CCOC(=O)C1(C(=O)OCC)COC(=O)C1
inactive: dose: 50.0 mg/kg/injection, schedule: Q01DX009 (ip), vehicle: acetone 94 % of control | dose: 100.0 mg/kg/injection, schedule: Q01DX009 (ip), vehicle: acetone 97 % of control | dose: 100.0 mg/kg/injection, schedule: Q04DX003 (ip), vehicle: acetone 107 % of control | dose: 200.0 mg/kg/injection, schedule: Q01DX009 (ip), vehicle: acetone 100 % of control | dose: 200.0 mg/kg/injection, schedule: Q04DX003 (ip), vehicle: acetone 96 % of control | dose: 400.0 mg/kg/injection, schedule: Q04DX003 (ip), vehicle: acetone 98 % of control

O=[N+]([O-])c1ccc2c(c1[N+](=O)[O-])CCCC2
inactive: [13] 93 % of control | [6] 93 % of control | [14] 98 % of control | [7] 93 % of control | [15] 98 % of control | [8] 98 % of control

COc1ccc(NC(=O)c2cccc([N+](=O)[O-])c2)cc1
inactive: [22] 96 % of control | [23] 93 % of control | [24] 96 % of control

COc1ccc(OC)c(NC(=O)NNC(=O)CNC(=O)Nc2ccc(Cl)c(Cl)c2)c1
inactive: dose: 12.5 mg/kg/injection, schedule: Q01DX009 (ip), vehicle: saline with Tween-80 95 % of control | dose: 25.0 mg/kg/injection, schedule: Q01DX009 (ip), vehicle: saline with Tween-80 95 % of control | [25] 91 % of control and 92 % of control | [13] 88 % of control | [14] 98 % of control

COc1cccc2cc(C3(c4ccccc4)OC(=O)c4ccccc43)ccc12 (configuration not stated)
inactive: [1] 90 % of control | [2] 94 % of control | [3] 95 % of control

CNC(=S)NNC(=O)c1ccncc1
inactive: dose: 100.0 mg/kg/injection, schedule: Q04DX002 (ip), vehicle: saline with Tween-80 100 % of control | dose: 200.0 mg/kg/injection, schedule: Q04DX002 (ip), vehicle: saline with Tween-80 100 % of control | dose: 400.0 mg/kg/injection, schedule: Q04DX002 (ip), vehicle: saline with Tween-80 100 % of control

CC(=O)OCC1OC(SSCc2ccccc2)C(OC(C)=O)C(OC(C)=O)C1OC(C)=O (configuration not stated)
inactive: [10] 96 % of control | [11] 93 % of control | [12] 93 % of control

CC(C)(CBr)COS(=O)(=O)c1ccc(Br)cc1
inactive: [25] 89 % of control | [13] 91 % of control

Cc1cccc(NC(=O)NCCOC(=O)OCCNC(=O)Nc2cccc(C)c2C)c1C
inactive: [13] 97 % of control | [6] 91 % of control | [14] 98 % of control | [7] 91 % of control | [15] 97 % of control | [8] 106 % of control

CC(NC(=O)CCC(NC(=O)C(Cc1ccc(O)cc1)NC(=O)CNC(=O)C(C)NC(=O)CCC(NC(=O)C(N)c1ccc(O)cc1)C(=O)O)C(=O)O)C(=O)NCC(=O)NCC(=O)O (configuration not stated) (H-[Hpg][γGlu]AGY[γGlu]AGG-OH; configuration not given here)
inactive: [10] 97 % of control | [11] 98 % of control | [12] 97 % of control

O=C(CCN1CCOCC1)c1csc2ccccc12
inactive: [19] 102 % of control | [20] 102 % of control | [21] 96 % of control

OC1(c2ccccc2)c2ccccc2C(O)(c2ccccc2)c2cc(-c3ccccc3)c(-c3ccccc3)cc21 (configuration not stated)
inactive: dose: 100.0 mg/kg/injection, schedule: Q04DX002 (ip), vehicle: Klucel (hydroxypropylcellulose) (HPC) 95 % of control | dose: 200.0 mg/kg/injection, schedule: Q04DX002 (ip), vehicle: Klucel (hydroxypropylcellulose) (HPC) 103 % of control | dose: 400.0 mg/kg/injection, schedule: Q04DX002 (ip), vehicle: Klucel (hydroxypropylcellulose) (HPC) 106 % of control

C=C(C)C1(CCCC)C(=O)NC(=S)NC1=O
inactive: dose: 75.0 mg/kg/injection, schedule: Q01DX001 (ip), vehicle: saline 102 % of control | dose: 150.0 mg/kg/injection, schedule: Q01DX001 (ip), vehicle: saline 95 % of control

Cc1ccc2cccc3c2c1S(=O)(=O)c1cccc2cccc(c12)C3
inactive: [10] 98 % of control | [11] 104 % of control | [12] 93 % of control
